Measured values from patent publication US8796245B2 (TetraPhase Pharmaceuticals, Inc., priority 2008, dated 2014).
Values after ≈ are worked out from the molar mass of the structure shown.

Experiments:
Type in all cases: cell-based
[1] = system: S. aureus SA161 (tet resistant: tet(M) ribosomal protection); assay: Minimum inhibitory concentration assay, SA161; conditions: Staphylococcus aureus, read-out: MICs SA161
Protocol: (§1) Frozen bacterial strains were thawed and subcultured onto Mueller Hinton Broth (MHB) or other appropriate media (Streptococcus requires blood and Haemophilus requires hemin and NAD). Following incubation overnight, the strains were subcultured onto Mueller Hinton Agar and again incubated overnight. […] Isolated colonies were selected to prepare a starting inoculum equivalent to a 0.5 McFarland standard. The starting inoculum was diluted 1:125 using MHB for further use. Test compounds were prepared by dilution in sterile water to a final concentration of 5.128 mg/mL. Antibiotics (stored frozen, thawed and used within 3 hours of thawing) and compounds were further diluted to the desired working concentrations.
(§2) The assays were run as follows. Fifty μL of MHB was added to wells 2-12 of a 96-well plate. One hundred […] of appropriately diluted antibiotics was added to well 1. Fifty μL of antibiotics was removed from well 1 and added to well 2 and the contents of well 2 mixed by pipetting up and down five times. Fifty μL of the mixture in well 2 was removed and added to well 3 and mixed as above. Serial dilutions were continued in the same manner through well 12. Fifty μL was removed from well 12 so that all contained 50 μL. Fifty μL of the working inoculum was then added to all test wells. A growth control well was prepared by adding 50 μL of working inoculum and 50 μL of MHB to an empty well. The plates were then incubated at 37° C. overnight, removed from the incubator and each well was read on a plate reading mirror. The lowest concentration (MIC) of test compound that inhibited the growth of the bacteria was recorded.

[2] = system: S. aureus ATCC 29213 (SA101, MSSA); assay: Minimum inhibitory concentration assay, SA101; conditions: Staphylococcus aureus; S. aureus ATCC 29213, MSSA control; read-out: MICs SA101
Protocol: as §1, §2

[3] = system: E. cloacae ATCC 13047 (EC108); assay: Minimum inhibitory concentration assay, EC108; conditions: Enterobacter cloacae, ATCC13047; E. cloacae ATCC 13047, wt; read-out: MICs EC108
Protocol: as §1, §2

[4] = system: S. pneumoniae ATCC 49619 (SP106); assay: Minimum inhibitory concentration assay, SP106; conditions: Streptococcus pneumoniae, ATCC49619; S. pneumoniae ATCC 49619, wt; read-out: MICs SP106
Protocol: as §1, §2

[5] = system: S. pneumoniae SP160 (tet resistant: tet M); assay: Minimum inhibitory concentration assay, SP160; conditions: Streptococcus pneumoniae, read-out: MICs SP160
Protocol: as §1, §2

[6] = system: E. faecalis EF159 (tet resistant: tetM); assay: Minimum inhibitory concentration assay, EF159; conditions: Enterococcus faecalis, read-out: MICs EF159
Protocol: as §1, §2

[7] = system: S. aureus SA158 (tet resistant: tetK efflux); assay: microbe, parasite or virus in culture; conditions: Staphylococcus aureus, read-out: MICs SA158
Protocol: as §1, §2

[8] = system: K. pneumoniae KP153 (tet resistant: tetA efflux); assay: microbe, parasite or virus in culture; conditions: Klebsiella pneumoniae, read-out: MICs KP153
Protocol: as §1, §2

[9] = system: E. coli EC155 (tet resistant: tetA efflux); assay: microbe, parasite or virus in culture; conditions: Escherichia coli; E. coli tet resistant: tetA (efflux); read-out: MICs EC155
Protocol: as §1, §2

[10] = system: K. pneumoniae ATCC 13883 (KP109); assay: Minimum inhibitory concentration assay, KP109; conditions: Klebsiella pneumoniae, ATCC13883; K. pneumoniae ATCC 13883, wt; read-out: MICs KP109
Protocol: as §1, §2

[11] = system: S. aureus ATCC 13709 (SA100, MSSA, Smith strain); assay: Minimum inhibitory concentration assay, SA100; conditions: Staphylococcus aureus; S. aureus ATCC 13709, MSSA Smith strain; read-out: MICs SA100
Protocol: as §1, §2

[12] = system: A. baumanii ATCC 19606 (AB110); assay: Minimum inhibitory concentration assay, AB110; conditions: Acinetobacter baumannii, ATCC19606; A. baumanii ATCC 19606, wt; read-out: MICs AB110
Protocol: as §1, §2

[13] = system: E. coli ATCC 25922 (EC107); assay: Minimum inhibitory concentration assay, EC107; conditions: Escherichia coli, ATCC25922; E. coli ATCC 25922, wt; read-out: MICs EC107
Protocol: as §1, §2

[14] = system: P. aeruginosa ATCC 27853 (PA111); assay: Minimum inhibitory concentration assay, PA111; conditions: Pseudomonas aeruginosa, ATCC27853; P. aeruginosa ATCC 27853, wt; read-out: MICs PA111
Protocol: as §1, §2

[15] = system: E. faecalis ATCC 29212 (EF103); assay: Minimum inhibitory concentration assay, EF103; conditions: Enterococcus faecalis, ATCC29212, read-out: MICs EF103
Protocol: as §1, §2

| Compound | MIC [1] [µg/mL] | MIC [2] [µg/mL] | MIC [3] [µg/mL] | MIC [4] [µg/mL] | MIC [5] [µg/mL] | MIC [6] [µg/mL] | MIC [7] [µg/mL] | MIC [8] [µg/mL] | MIC [9] [µg/mL] | MIC [10] [µg/mL] | MIC [11] [µg/mL] | MIC [12] [µg/mL] | MIC [13] [µg/mL] | MIC [14] [µg/mL] | MIC [15] [µg/mL] |
| --- | --- | --- | --- | --- | --- | --- | --- | --- | --- | --- | --- | --- | --- | --- | --- |
| COCCCNCC(=O)Nc1cc(F)c2c(c1O)C(=O)C1=C(O)[C@]3(O)C(=O)C(C(N)=O)=C(O)[C@@H](N(C)C)[C@@H]3C[C@@H]1C2 [Compound 27] | 4 (≈ 6.94 µM) | 2 (≈ 3.47 µM) | 16 (≈ 27.7 µM) | 0.125 (≈ 0.217 µM) | 0.5 (≈ 0.867 µM) | 4 (≈ 6.94 µM) | 16 (≈ 27.7 µM) | 32 (≈ 55.5 µM) | 32 (≈ 55.5 µM) | 8 (≈ 13.9 µM) | 2 (≈ 3.47 µM) | 16 (≈ 27.7 µM) | 4 (≈ 6.94 µM) | > 32 | 2 (≈ 3.47 µM) |
| CN(C)[C@@H]1C(O)=C(C(N)=O)C(=O)[C@@]2(O)C(O)=C3C(=O)c4c(O)c(NC(=O)CN5Cc6ccccc6C5)cc(F)c4C[C@H]3C[C@@H]12 [Compound 46] | 0.5 (≈ 0.824 µM) | 0.25 (≈ 0.412 µM) | 32 (≈ 52.8 µM) | 0.125 (≈ 0.206 µM) | 0.125 (≈ 0.206 µM) | 0.5 (≈ 0.824 µM) | 0.25 (≈ 0.412 µM) | 32 (≈ 52.8 µM) | 4 (≈ 6.59 µM) | 4 (≈ 6.59 µM) | 0.25 (≈ 0.412 µM) | 0.125 (≈ 0.206 µM) | 2 (≈ 3.3 µM) | > 32 | 0.25 (≈ 0.412 µM) |
| CN(C)[C@@H]1C(O)=C(C(N)=O)C(=O)[C@@]2(O)C(O)=C3C(=O)c4c(O)c(NC(=O)CNC5CCCC5)cc(F)c4C[C@H]3C[C@@H]12 [Compound 18] | 0.0625 (≈ 0.109 µM) | 0.0625 (≈ 0.109 µM) | 0.5 (≈ 0.873 µM) | ≤ 0.0156 | ≤ 0.0156 | 0.0313 (≈ 0.0547 µM) | 0.125 (≈ 0.218 µM) | 4 (≈ 6.99 µM) | 4 (≈ 6.99 µM) | 0.5 (≈ 0.873 µM) | ≤ 0.0156 | 0.25 (≈ 0.437 µM) | 0.125 (≈ 0.218 µM) | 16 (≈ 27.9 µM) | ≤ 0.0156 |
| CN(C)[C@@H]1C(O)=C(C(N)=O)C(=O)[C@@]2(O)C(O)=C3C(=O)c4c(O)c(NC(=O)CN5CCCCC5)cc(F)c4C[C@H]3C[C@@H]12 [Compound 43] | 1 (≈ 1.75 µM) | 0.5 (≈ 0.873 µM) | 4 (≈ 6.99 µM) | ≤ 0.0156 | ≤ 0.0156 | 0.5 (≈ 0.873 µM) | 0.5 (≈ 0.873 µM) | 4 (≈ 6.99 µM) | 4 (≈ 6.99 µM) | 2 (≈ 3.49 µM) | 0.5 (≈ 0.873 µM) | 0.125 (≈ 0.218 µM) | 1 (≈ 1.75 µM) | 32 (≈ 55.9 µM) | 0.25 (≈ 0.437 µM) |
| CN(C)[C@@H]1CCN(CC(=O)Nc2cc(F)c3c(c2O)C(=O)C2=C(O)[C@]4(O)C(=O)C(C(N)=O)=C(O)[C@@H](N(C)C)[C@@H]4C[C@@H]2C3)C1 [Compound 37] | > 32 | 8 (≈ 13.3 µM) | > 32 | 2 (≈ 3.32 µM) | 4 (≈ 6.65 µM) | 16 (≈ 26.6 µM) | > 32 | > 32 | > 32 | > 32 | 8 (≈ 13.3 µM) | > 32 | > 32 | > 32 | 16 (≈ 26.6 µM) |
| CN(C)[C@@H]1C(O)=C(C(N)=O)C(=O)[C@@]2(O)C(O)=C3C(=O)c4c(O)c(NC(=O)CN5CC[C@H](O)C5)cc(F)c4C[C@H]3C[C@@H]12 [Compound 40] | 1 (≈ 1.74 µM) | 1 (≈ 1.74 µM) | 4 (≈ 6.96 µM) | 0.0625 (≈ 0.109 µM) | 0.5 (≈ 0.87 µM) | 1 (≈ 1.74 µM) | 16 (≈ 27.8 µM) | 32 (≈ 55.7 µM) | > 32 | 8 (≈ 13.9 µM) | 1 (≈ 1.74 µM) | 8 (≈ 13.9 µM) | 4 (≈ 6.96 µM) | 32 (≈ 55.7 µM) | 1 (≈ 1.74 µM) |
